Article PMC11728000, “Antitumor Activity and Multi-Target Mechanism of Phenolic Schiff Bases Bearing Methanesulfonamide Fragments: Cell Cycle Analysis and a Molecular Modeling Study” (International Journal of Molecular Sciences, 2024)
Values belong to the compound of their own block, whether it stands above or below them.

How the values were obtained:
HOP-92 = assay: NCI anticancer screening (SRB), Non-Small Cell Lung Cancer subpanel; format: cell-based, human; details: 10.0 µM in one dose
MALME-3M = assay: NCI anticancer screening (SRB), Melanoma subpanel; format: cell-based, human; details: 10.0 µM in one dose
UO-31 = assay: NCI anticancer screening (SRB), Renal Cancer subpanel; format: cell-based, human; details: 10.0 µM in one dose
[1] = tested on: Leukemia subpanel tumor cell lines; assay: NCI anticancer screening, subpanel summary; format: cell-based; details: leukemia; 10 µM, joint for compounds named together
[2] = tested on: NSC Lung Cancer subpanel tumor cell lines; assay: NCI anticancer screening, subpanel summary; format: cell-based; details: non-small cell lung; 10 µM, joint for compounds named together
[3] = tested on: Breast Cancer subpanel tumor cell lines; assay: NCI anticancer screening, subpanel summary; format: cell-based; details: breast; 10 µM, joint for compounds named together
[4] = tested on: 59 human cancer cell lines; assay: NCI anticancer screening, full panel summary; details: 10 µM single dose; for PCE (positive cytotoxic effect): ratio of cell lines with growth inhibition > 10% to total cell lines; for MG% (mean growth percent): mean over 59 cell lines
UACC-257 = assay: NCI anticancer screening (SRB), Melanoma subpanel; format: cell-based, human; details: 10.0 µM in one dose
A498 = assay: NCI anticancer screening (SRB), Renal Cancer subpanel; format: cell-based, human; details: 10.0 µM in one dose
CAKI-1 = assay: as above; format: cell-based, human; details: 10.0 µM in one dose
SR = assay: NCI anticancer screening (SRB), Leukemia subpanel; format: cell-based, human; details: 10.0 µM in one dose
MCF-7 = assay: NCI anticancer screening (SRB), Breast Cancer subpanel; format: cell-based, human; details: 10.0 µM in one dose
MOLT-4 = assay: NCI anticancer screening (SRB), Leukemia subpanel; format: cell-based, human; details: 10.0 µM in one dose
RPMI-8226 = assay: NCI anticancer screening (SRB), Leukemia subpanel; format: cell-based, human; details: 10.0 µM in one dose
EKVX = assay: NCI anticancer screening (SRB), Non-Small Cell Lung Cancer subpanel; format: cell-based, human; details: 10.0 µM in one dose
NCI-H226 = assay: as above; format: cell-based, human; details: 10.0 µM in one dose
NCI-H23 = assay: as above; format: cell-based, human; details: 10.0 µM in one dose
HCT-116 = assay: NCI anticancer screening (SRB), Colon Cancer subpanel; format: cell-based, human; details: 10.0 µM in one dose
HCT-15 = assay: as above; format: cell-based, human; details: 10.0 µM in one dose
HT29 = assay: as above; format: cell-based, human; details: 10.0 µM in one dose
SF-295 = assay: NCI anticancer screening (SRB), CNS Cancer subpanel; format: cell-based, human; details: 10.0 µM in one dose
SF-539 = assay: as above; format: cell-based, human; details: 10.0 µM in one dose
U251 = assay: as above; format: cell-based, human; details: 10.0 µM in one dose
LOX IMVI = assay: NCI anticancer screening (SRB), Melanoma subpanel; format: cell-based, human; details: 10.0 µM in one dose
SK-MEL-5 = assay: NCI anticancer screening (SRB), Melanoma subpanel; format: cell-based, human; details: 10.0 µM in one dose
PC-3 = assay: NCI anticancer screening (SRB), Prostate Cancer subpanel; format: cell-based, human; details: 10.0 µM in one dose
DU-145 = assay: as above; format: cell-based, human; details: 10.0 µM in one dose
MDA-MB-231/ATCC = assay: NCI anticancer screening (SRB), Breast Cancer subpanel; format: cell-based, human; details: 10.0 µM in one dose
T-47D = assay: as above; format: cell-based, human; details: 10.0 µM in one dose
MDA-MB-468 = assay: as above; format: cell-based, human; details: 10.0 µM in one dose
[5] = tested on: Ovarian Cancer subpanel tumor cell lines; assay: NCI anticancer screening, subpanel summary; format: cell-based; details: ovarian; 10 µM, joint for compounds named together
in vitro = details: human
Experimental: the measured protein at the end of the drug treatment as compared to that at the beginning) indicating a net loss of cells following treatment was calculated from [(Ti − Tz)/Tz] […] = − 50.
Values were calculated for each of these three parameters if the activity level was reached; however, if the effect was not reached or exceeded, that parameter's value was expressed as more or less than the maximum or minimum concentration tested. The log GI50, log TGI, and log LC50 were then determined and defined as the mean of the logs of the individual GI50, TGI, and LC50 values. The lowest values are obtained with the most sensitive cell lines. The compound with log GI50 values −4 and <−4 was declared active.
2. In vitro cytotoxic activity towards normal fibroblast (WI-38) cells Cell Lines were obtained from the American Type Culture Collection; cells were cultured using DMEM (Invitrogen/Life Technologies) supplemented with 10% FBS (Hyclone), ten ug/ml of insulin (Sigma), and 1% penicillin–streptomycin. Cultures were removed from the incubator into a laminar flow hood, reconstituted with 3 mL of balanced salt solution without phenol red and serum, and then added to an amount equal to 10% of the culture medium volume. Cultures returned to the incubator for 2–4 h. After the incubation period, the resulting formazan crystals dissolved […]
medium volume. The absorbance was measured Spectrophotometrically at a wavelength of 570 […]
3. In vitro cyclooxygenase (COX-2) inhibition assay
The ability of the test compounds to inhibit COX-2 was determined using an enzyme immunoassay […]
manufacturer’s instructions.

MCF-7 cells [6] = assay: Annexin V-FITC/PI apoptosis assay; format: cell-based, human; details: 24 h
MCF-7 cells [7] = assay: Cell cycle analysis (PI flow cytometry); format: cell-based, human; details: 10 μM, 24 h
Experimental: Apoptosis is the primary mechanism by which potent chemotherapeutic agents destroy cancer cells. […] Flow cytometry measured cell growth in the G0-G1, S, and G2/M cell cycle phases.
Using the MCF-7 cell line, the cell cycle analysis was carried out like our previous investigation. A FACSCalibur flow cytometer was used to analyze the cells after they had been stained with DNA fluorochrome PI (Supplementary Materials). […]
photomultiplier voltage and for compensation setting adjustment to eliminate spectral overlap between the FL1 and the FL2 signals.
6. Cell cycle analysis
Breast carcinoma (MCF-7) cell was seeded at 2 × 10^5 cells/well density and incubated for 24 h in six-well plates. Foetal bovine serum (10%) was added, and the cells were incubated at 37 °C in an atmosphere of 5% CO2. The medium was replaced with 1% (v/v) DMSO containing 10.0 μM of […]
with 70% ethanol, rinsed with phosphate-buffered saline, and then stained with the DNA fluorochrome propidium iodide (PI) for 15 min at 37 °C. Then, samples were analyzed by flow cytometry using a FACSCalibur (Becton Dickinson). The cell cycle distributions were calculated using CellQuest software (Becton Dickinson). […]

SMILES: CS(=O)(=O)Nc1ccc(C(=O)N/N=C/c2cccc(O)c2)cc1 [Compound 9]
GI% (HOP-92): 23%
GI% (MALME-3M): 12%
GI% (UO-31): 17%
GI range in subpanel [1]: 10.0%
GI range in subpanel [2]: 23.0%
GI range in subpanel [3]: 11.0%
PCE (positive cytotoxic effect) [4]: 3/59

SMILES: CS(=O)(=O)Nc1ccc(C(=O)N/N=C/c2ccc(O)cc2)cc1 [Compound 10]
GI% (UACC-257): 10%
GI% (A498): 15%
GI% (CAKI-1): 10%
GI% (UO-31): 14%
GI range in subpanel [1]: 10.0%
GI range in subpanel [2]: 23.0%
GI range in subpanel [3]: 11.0%
PCE (positive cytotoxic effect) [4]: 4/59

SMILES: COc1cc(/C=N/NC(=O)c2ccc(NS(C)(=O)=O)cc2)ccc1O [Compound 11]
GI% (SR): 10%
GI% (CAKI-1): 16%
GI% (UO-31): 10%
GI% (MCF-7): 11%
GI range in subpanel [1]: 10.0%
GI range in subpanel [2]: 23.0%
GI range in subpanel [3]: 11.0%
PCE (positive cytotoxic effect) [4]: 4/59

SMILES: Cc1ccc(NC(=O)c2ccc(CN3CCN(C)CC3)cc2)cc1Nc1nccc(-c2cccnc2)n1 [Imatinib, imatinib]
GI% (MOLT-4): 18%
GI% (RPMI-8226): 13%
GI% (SR): 15%
GI% (EKVX): 16%
GI% (NCI-H226): 11%
GI% (NCI-H23): 17%
GI% (HCT-116): 19%
GI% (HCT-15): 12%
GI% (HT29): 47%
GI% (SF-295): 15%
GI% (SF-539): 25%
GI% (U251): 11%
GI% (LOX IMVI): 12%
GI% (SK-MEL-5): 22%
GI% (A498): 14%
GI% (PC-3): 11%
GI% (DU-145): 14%
GI% (MDA-MB-231/ATCC): 11%
GI% (T-47D): 19%
GI% (MDA-MB-468): 29%
GI range in subpanel [5]: ≥ 10.0%
MG% (mean growth percent) [4]: 92.62%
MG% (mean growth percent) ([4]; listed as imatinib): 92.6%

IC50 (in vitro): 32 µM
SMILES: CS(=O)(=O)CCNCc1ccc(-c2ccc3ncnc(Nc4ccc(OCc5cccc(F)c5)c(Cl)c4)c3c2)o1 [Lapatinib, lapatinib]

SMILES: CN[C@@H]1C[C@H]2O[C@@](C)([C@@H]1OC)n1c3ccccc3c3c4c(c5c6ccccc6n2c5c31)C(=O)NC4 [Staurosporine, staurosporine]
Necrosis (MCF-7 cells [6]): 4.04%
Total Apoptosis (MCF-7 cells [6]; annexin V-FITC/PI): 34.39%
Early Apoptosis (MCF-7 cells [6]; lower-right quadrant): 8.36%
Late Apoptosis (MCF-7 cells [6]; upper-right quadrant): 21.99%
%G0–G1 (MCF-7 cells [7]): 65.74%
%G2-M (MCF-7 cells [7]): 3.07%
%S (MCF-7 cells [7]): 31.19%
Comment (cell cycle arrest phase) (MCF-7 cells [7]): Growth arrest@G1/S
